Results as given in PubChem BioAssay (NCI).
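Assay format: 96-well plates, 48-hour exposure. GI50 is the concentration that inhibits growth by half. TGI is the concentration that stops growth completely.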

How the values were obtained:
Assay in all cases: NCI anticancer screen, dose series, 48 h
786-0 renal = test system: 786-0 renal
A498 renal = test system: A498 renal
A549 NSCLC = test system: A549 NSCLC
ACHN renal = test system: ACHN renal
BT-549 breast = test system: BT-549 breast
CAKI-1 renal = test system: CAKI-1 renal
CCRF-CEM leukemia = test system: CCRF-CEM leukemia
COLO 205 colon = test system: COLO 205 colon
DU-145 prostate = test system: DU-145 prostate
EKVX NSCLC = test system: EKVX NSCLC
HCC-2998 colon = test system: HCC-2998 colon
HCT-116 colon = test system: HCT-116 colon
HCT-15 colon = test system: HCT-15 colon
HL-60(TB) leukemia = test system: HL-60(TB) leukemia
HOP-62 NSCLC = test system: HOP-62 NSCLC
HOP-92 NSCLC = test system: HOP-92 NSCLC
HS 578T breast = test system: HS 578T breast
HT29 colon = test system: HT29 colon
IGROV1 ovarian = test system: IGROV1 ovarian
K-562 leukemia = test system: K-562 leukemia
KM12 colon = test system: KM12 colon
LOX IMVI melanoma = test system: LOX IMVI melanoma
M14 melanoma = test system: M14 melanoma
MALME-3M melanoma = test system: MALME-3M melanoma
MCF7 breast = test system: MCF7 breast
MDA-MB-231 breast = test system: MDA-MB-231 breast
MDA-MB-435 = test system: MDA-MB-435
MDA-MB-468 breast = test system: MDA-MB-468 breast
MOLT-4 leukemia = test system: MOLT-4 leukemia
NCI-H226 lung = test system: NCI-H226 lung
NCI-H23 lung = test system: NCI-H23 lung
NCI-H460 lung = test system: NCI-H460 lung
NCI-H522 lung = test system: NCI-H522 lung
NCI/ADR-RES ovarian = test system: NCI/ADR-RES ovarian
OVCAR-3 ovarian = test system: OVCAR-3 ovarian
OVCAR-4 ovarian = test system: OVCAR-4 ovarian
OVCAR-5 ovarian = test system: OVCAR-5 ovarian
OVCAR-8 ovarian = test system: OVCAR-8 ovarian
PC-3 prostate = test system: PC-3 prostate
RPMI-8226 leukemia = test system: RPMI-8226 leukemia
RXF 393 renal = test system: RXF 393 renal
SF-268 CNS = test system: SF-268 CNS
SF-295 CNS = test system: SF-295 CNS
SF-539 CNS = test system: SF-539 CNS
SK-MEL-2 melanoma = test system: SK-MEL-2 melanoma
SK-MEL-28 melanoma = test system: SK-MEL-28 melanoma
SK-MEL-5 melanoma = test system: SK-MEL-5 melanoma
SK-OV-3 ovarian = test system: SK-OV-3 ovarian
SN12C renal = test system: SN12C renal
SNB-19 CNS = test system: SNB-19 CNS
SNB-75 CNS = test system: SNB-75 CNS
SR leukemia = test system: SR leukemia
SW-620 colon = test system: SW-620 colon
T-47D breast = test system: T-47D breast
TK-10 renal = test system: TK-10 renal
U251 CNS = test system: U251 CNS
UACC-257 melanoma = test system: UACC-257 melanoma
UACC-62 melanoma = test system: UACC-62 melanoma
UO-31 renal = test system: UO-31 renal

For NS(=O)(=O)c1ccc(Nc2nc(N/N=C/c3cc(Br)c(O)c(Br)c3)nc(Nc3ccccc3)n2)cc1, the GI50 (786-0 renal) was 15.1 µM, the TGI (786-0 renal) was 44.3 µM and the GI50 (A498 renal) was 13.3 µM. It also gave a TGI (A498 renal) of 36.6 µM, a GI50 (A549 NSCLC) of 21.8 µM and a TGI (A549 NSCLC) of 67.5 µM. It also gave a GI50 (ACHN renal) of 24.8 µM, a TGI (ACHN renal) of 93.8 µM and a GI50 (BT-549 breast) of 16.8 µM. The TGI (BT-549 breast) was 42.7 µM, the GI50 (CAKI-1 renal) was 24 µM and the TGI (CAKI-1 renal) was 85.7 µM. For the same compound, the GI50 (CCRF-CEM leukemia) was 11.1 µM, the TGI (CCRF-CEM leukemia) was 41.6 µM and the GI50 (COLO 205 colon) was 16 µM. For the same compound, the TGI (COLO 205 colon) was 29.8 µM, the GI50 (DU-145 prostate) was 16.1 µM and the TGI (DU-145 prostate) was 30.2 µM. For the same compound, the GI50 (EKVX NSCLC) was 21.4 µM, the TGI (EKVX NSCLC) was 69.2 µM and the GI50 (HCC-2998 colon) was 14.8 µM. It also gave a TGI (HCC-2998 colon) of 29.2 µM, a GI50 (HCT-116 colon) of 17.7 µM and a TGI (HCT-116 colon) of 38.9 µM. For the same compound, the GI50 (HCT-15 colon) was 32.3 µM, the TGI (HCT-15 colon) was greater than 100 µM and the GI50 (HL-60(TB) leukemia) was 22 µM. The TGI (HL-60(TB) leukemia) was 60.9 µM, the GI50 (HOP-62 NSCLC) was 21.3 µM and the TGI (HOP-62 NSCLC) was 58.9 µM. For the same compound, the GI50 (HOP-92 NSCLC) was 26.7 µM, the TGI (HOP-92 NSCLC) was 81.2 µM and the GI50 (HS 578T breast) was 7.76 µM. It also gave a TGI (HS 578T breast) of 81.3 µM, a GI50 (HT29 colon) of 19.6 µM and a TGI (HT29 colon) of 49.1 µM. The GI50 (IGROV1 ovarian) was 18.5 µM, the TGI (IGROV1 ovarian) was 42.2 µM and the GI50 (K-562 leukemia) was 23.4 µM. For the same compound, the TGI (K-562 leukemia) was greater than 100 µM, the GI50 (KM12 colon) was 17.5 µM and the TGI (KM12 colon) was 37.1 µM. For the same compound, the GI50 (LOX IMVI melanoma) was 15.8 µM, the TGI (LOX IMVI melanoma) was 30.4 µM and the GI50 (M14 melanoma) was 18.8 µM. It also gave a TGI (M14 melanoma) of 45.7 µM, a GI50 (MALME-3M melanoma) of 14.7 µM and a TGI (MALME-3M melanoma) of 34.8 µM. For the same compound, the GI50 (MCF7 breast) was 16.9 µM, the TGI (MCF7 breast) was 45.4 µM and the GI50 (MDA-MB-231 breast) was 17.2 µM. It also gave a TGI (MDA-MB-231 breast) of 47.4 µM, a GI50 (MDA-MB-435) of 17.8 µM and a TGI (MDA-MB-435) of 40.6 µM. It also gave a GI50 (MDA-MB-468 breast) of 2.94 µM, a TGI (MDA-MB-468 breast) of 15.5 µM and a GI50 (MOLT-4 leukemia) of 19.7 µM. For the same compound, the TGI (MOLT-4 leukemia) was 52.3 µM, the GI50 (NCI-H226 lung) was 26.5 µM and the TGI (NCI-H226 lung) was 98.2 µM. For the same compound, the GI50 (NCI-H23 lung) was 20.9 µM, the TGI (NCI-H23 lung) was 50.1 µM and the GI50 (NCI-H460 lung) was 19.6 µM. For the same compound, the TGI (NCI-H460 lung) was 60.1 µM, the GI50 (NCI-H522 lung) was 16.8 µM and the TGI (NCI-H522 lung) was 42.4 µM. It also gave a GI50 (NCI/ADR-RES ovarian) greater than 100 µM, a TGI (NCI/ADR-RES ovarian) greater than 100 µM and a GI50 (OVCAR-3 ovarian) of 21.4 µM. The TGI (OVCAR-3 ovarian) was 63.1 µM, the GI50 (OVCAR-4 ovarian) was 23.2 µM and the TGI (OVCAR-4 ovarian) was 81.4 µM. For the same compound, the GI50 (OVCAR-5 ovarian) was 22.7 µM, the TGI (OVCAR-5 ovarian) was 62.6 µM and the GI50 (OVCAR-8 ovarian) was 26.9 µM. The TGI (OVCAR-8 ovarian) was greater than 100 µM, the GI50 (PC-3 prostate) was 19.5 µM and the TGI (PC-3 prostate) was 55.2 µM. The GI50 (RPMI-8226 leukemia) was 22.8 µM, the TGI (RPMI-8226 leukemia) was 93.5 µM and the GI50 (RXF 393 renal) was 14.7 µM. The TGI (RXF 393 renal) was 32.8 µM, the GI50 (SF-268 CNS) was 19.9 µM and the TGI (SF-268 CNS) was 58.6 µM. The GI50 (SF-295 CNS) was 22.2 µM, the TGI (SF-295 CNS) was 60.2 µM and the GI50 (SF-539 CNS) was 17.9 µM. For the same compound, the TGI (SF-539 CNS) was 41.3 µM, the GI50 (SK-MEL-2 melanoma) was 15.7 µM and the TGI (SK-MEL-2 melanoma) was 38.1 µM. For the same compound, the GI50 (SK-MEL-28 melanoma) was 18.1 µM, the TGI (SK-MEL-28 melanoma) was 40.6 µM and the GI50 (SK-MEL-5 melanoma) was 14.9 µM. It also gave a TGI (SK-MEL-5 melanoma) of 28.6 µM, a GI50 (SK-OV-3 ovarian) of 21.3 µM and a TGI (SK-OV-3 ovarian) of 61.9 µM. The GI50 (SN12C renal) was 15.6 µM, the TGI (SN12C renal) was 32.1 µM and the GI50 (SNB-19 CNS) was 14.2 µM. It also gave a TGI (SNB-19 CNS) of 27.7 µM, a GI50 (SNB-75 CNS) of 18.6 µM and a TGI (SNB-75 CNS) of 61.7 µM. For the same compound, the GI50 (SR leukemia) was 15.9 µM, the TGI (SR leukemia) was greater than 100 µM and the GI50 (SW-620 colon) was 17.2 µM. For the same compound, the TGI (SW-620 colon) was 42.4 µM, the GI50 (T-47D breast) was 7.39 µM and the TGI (T-47D breast) was 27.3 µM. The GI50 (TK-10 renal) was 27.7 µM, the TGI (TK-10 renal) was 87 µM and the GI50 (U251 CNS) was 20 µM. For the same compound, the TGI (U251 CNS) was 71 µM, the GI50 (UACC-257 melanoma) was 20.6 µM and the TGI (UACC-257 melanoma) was 47.9 µM. The GI50 (UACC-62 melanoma) was 14.5 µM, the TGI (UACC-62 melanoma) was 28.3 µM and the GI50 (UO-31 renal) was 26.7 µM. The TGI (UO-31 renal) was greater than 100 µM.
